Assay results: patent US20070167408A1, “NOVEL ALKYL PHOSPHOLIPID DERIVATIVES WITH REDUCED CYTOTOXICITY AND USES THEREOF” (ZENTARIS GmbH, priority 2005, published 2007)
≈ marks a conversion by molar mass, not a printed value.

Assays:
[1] = tested on: Aspergillus fumigatus 040-200167; test: Anti-fungal broth microdilution (MIC), fungus C; format: cell-based; conditions: filamentous protocol, more than 50% growth inhibition, 48 to 72 h
Procedure: (§1) Anti-fungal activity of selected compounds of the invention was assessed by means of anti-fungal susceptibility tests as follows.
(§2) The antifungal activities of the compounds of the invention against different fungi were measured according to standard broth microdilution methods of the US National Committee for Clinical Laboratory standards (NCCLS) for yeasts (NCCLS document M27-A, 1997) and filamentous fungi (NCCLS document M38-A, 2002).
(§3) Stock solutions of compounds of the invention were freshly prepared on the days of experiments equal to 1.28 mg/10 ml media. Serial dilutions were performed to achieve the following testing concentrations: 64 μg/ml, 32 μg/ml, 16 μg/ml, 8 μg/ml, 4 μg/ml, 2 μg/ml, 1 μg/ml, 0.5 μg/ml, 0.25 μg/ml and 0.125 μg/ml.
(§4) An inoculum of 10^6 CFU/ml of the fungi strain was prepared in the appropriate medium and transferred to test tubes for incubation.
(§5) The method is used to determine the minimum inhibitory concentrations (MIC) of drugs on fungi strains. […] For the filamentous fungi protocol, MIC determination took place after 48 to 72 h of culture at 35° C. and was defined at that concentration which produced more than 50% visible growth inhibition.

[2] = tested on: Cryptococcus gattii ATCC 32608; test: Anti-fungal broth microdilution (MIC), fungus J; format: cell-based; conditions: yeast protocol, more than 80% inhibition, 48 h
Procedure: as §1, §2, §3, §4, §5

[3] = tested on: Candida parapsilosis ATCC 22019; test: Anti-fungal broth microdilution (MIC), fungus G; format: cell-based; conditions: yeast protocol, more than 80% inhibition, 48 h
Procedure: as §1, §2, §3, §4, §5

[4] = tested on: Candida albicans ATCC 10231; test: Anti-fungal broth microdilution (MIC), fungus D; format: cell-based; conditions: yeast protocol, more than 80% inhibition, 48 h
Procedure: as §1, §2, §3, §4, §5

[5] = tested on: Cryptococcus neoformans H99; test: Anti-fungal broth microdilution (MIC), fungus I; format: cell-based; conditions: yeast protocol, more than 80% inhibition, 48 h
Procedure: as §1, §2, §3, §4, §5

[6] = tested on: Aspergillus fumigatus 322-384; test: Anti-fungal broth microdilution (MIC), fungus B; format: cell-based; conditions: filamentous protocol, more than 50% growth inhibition, 48 to 72 h
Procedure: as §1, §2, §3, §4, §5

Candida albicans TS3 = test: Anti-fungal broth microdilution (MIC), fungus F; format: cell-based; conditions: yeast protocol, more than 80% inhibition, 48 h
Procedure: as §1, §2, §3, §4, §5

[7] = tested on: Cryptococcus neoformans ATCC 90112; test: Anti-fungal broth microdilution (MIC), fungus H; format: cell-based; conditions: yeast protocol, more than 80% inhibition, 48 h
Procedure: as §1, §2, §3, §4, §5

[8] = tested on: Candida albicans ATCC 90028; test: Anti-fungal broth microdilution (MIC), fungus E; format: cell-based; conditions: yeast protocol, more than 80% inhibition, 48 h
Procedure: as §1, §2, §3, §4, §5

[9] = tested on: Aspergillus fumigatus ATCC 204305; test: Anti-fungal broth microdilution (MIC), fungus A; format: cell-based; conditions: filamentous protocol, more than 50% growth inhibition, 48 to 72 h
Procedure: as §1, §2, §3, §4, §5

[10] = tested on: RKOp21 (human colon adenocarcinoma) cells; test: XTT cytotoxicity assay, RKOp21 cells; format: cell-based; conditions: Homo sapiens; for inhibition at 31.6 µM: second set of experiments, read-out: RKOp21 % INH [31.6 μM]
Procedure: (§6) Cytotoxicity of selected compounds of the invention against different mammalian cell lines was assessed as follows.
(§7) Human tumor cell lines KB/HeLa (ATCC CCL17, human cervix carcinoma), PC3 (ATCC CRL1435, human prostate carcinoma) and RKOp21 (human colon adenocarcinoma; Schmidt et al., Oncogene 2000, 19: 2423-2429) cells were used in an automated XTT screening assay for the assessment of cytotoxicity.
(§8) The XTT assay quantifies cellular metabolic activity which correlates with cell viability and cell number. Test compounds (selected compounds of the invention and known substances as controls) are dissolved in culture medium at 600 μM and added to the tumor cells in 10 different concentrations in a semi-logarithmic fashion starting from 100 μM as highest concentration.
(§9) In a second set of experiments employing PC3, RKOp21 and SKOV-3 (ATCC HTB-77, human ovary adenocarcinoma) cells, test and reference compounds were dissolved in 70% Ethanol/30% H2O in a stock concentration of 10 mM and diluted in cell culture medium to yield either 31.6 μM (PC3 and RKOp21) or 100 μM (SKOV-3) final concentration.
(§10) 48 h later cellular metabolic activity of cells treated with test compounds is quantified by measurement of the absorbance at 490 nm (conversion of XTT dye) in comparison to untreated control cells (100% viability).
(§11) KB/HeLa and PC3 cells were cultivated in RPMI 1640 medium (Gibco, Cat. No. 42401-018) supplemented with 10% heat inactivated fetal calf serum (FCS, Biochrom AG, Cat. No. S0115), 2 mM L-glutamine (Gibco, Cat. No. 25030-24) and 2% Penicillin-Streptomycin (PenStrep, Gibco, Cat. No. 15140-122). RKOp21 cells were grown in DMEM+GlutaMAXTM-I medium (Gibco, Cat. No. 61965-026) supplemented with 10% heat inactivated fetal calf serum (FCS, Biochrom AG, Cat. No. S0115), 2 mM L-glutamine (Gibco, Cat. No. 25030-24), 2% Penicillin-Streptomycin (PenStrep, Gibco, Cat. No. 15140-122) and 1% 1M HEPES (Gibco, Cat. No. 15630-056). All cells were cultured at 37° C. in 5% CO2 humidified air.
(§12) On the first day of the experiment cells were harvested from exponential phase cultures by trypsination, counted and plated into 96 well flat-bottom micro titer plates depending on the cell line as listed below:
(§13) After a 24 h recovery to allow the cells to resume exponential growth, the test compounds were diluted immediately prior to use and transferred in 25 μl volume to the wells.
(§14) Following 2 days of continuous drug exposure 50 μl of freshly prepared XTT-PMS solution {2% 0.386 mg/ml PMS (N-Methyl Dibenzopyrazine Methylsulphate; Sigma, Cat. No. P9625) in PBS+98% 1 mg/ml XTT (Sodium 2,3-bis(2-methoxy-4-nitro-5-sulfophenyl)-5-[(phenylamino)carbonyl]-2H-Tetrazolium; Serva, Cat. No. 38450) in RPMI 1640 medium without phenol red} was added to the wells. To measure the proportion of living cells, the cells were incubated for 3 h with XTT-PMS reagent at 37° C., 5% CO2, humidified atmosphere allowing to form the formazan salt. The amount of soluble formazan salt produced by cellular reduction of XTT is quantified by measuring the absorbance at 490 nm using the Biomek® 2000 ELISA plate reader. %-inhibition (cytotoxicity) of each test compound was calculated in relation to untreated control cells. Inhibition curves were generated and IC50 values calculated by using GraphPad Prism.

[11] = tested on: SKOV-3 (human ovary adenocarcinoma) cells; test: XTT cytotoxicity assay, SKOV-3 cells; format: cell-based; conditions: Homo sapiens, SK-OV-3, second set of experiments, read-out: SKOV-3 % INH [100 μM]
Procedure: On the first day of the experiment cells were harvested from exponential phase cultures by trypsination, counted and plated into 96 well flat-bottom micro titer plates depending on the cell line as listed below: [table] After a 24 h recovery to allow the cells to resume exponential growth, the test compounds were diluted immediately prior to use and transferred in 25 μl volume to the wells. Following 2 days of continuous drug exposure 50 μl of freshly prepared XTT-PMS solution {2% 0.386 mg/ml PMS (N-Methyl Dibenzopyrazine Methylsulphate; Sigma, Cat. No. […] Serva, Cat. No. 38450) in RPMI 1640 medium without phenol red} was added to the wells. To measure the proportion of living cells, the cells were incubated for 3 h with XTT-PMS reagent at 37° C., 5% CO2, humidified atmosphere allowing to form the formazan salt. […] Inhibition curves were generated and IC50 values calculated by using GraphPad Prism.

[12] = tested on: PC3 (human prostate carcinoma) cells; test: XTT cytotoxicity assay, PC3 cells; format: cell-based; conditions: Homo sapiens, PC-3; for inhibition at 31.6 µM: second set of experiments, read-out: PC3 % INH [31.6 μM]
Procedure: as §6, §7, §8, §9, §10, §11, §12, §13, §14

[13] = tested on: KB/HeLa (human cervix carcinoma) cells; test: XTT cytotoxicity assay, KB/HeLa cells; format: cell-based; conditions: Homo sapiens, HeLa; XTT, 48 h exposure; read-out: KB/HELA [IC50 (μM)]
Procedure: as §6, §7, §8, §10, §11, §12, §13, §14

[14] = tested on: PC3, RKOp21 and SKOV-3 cell lines; test: XTT cytotoxicity assay, mean over all three cell lines; format: cell-based, human; conditions: mean value over all three cell lines
Procedure: Following 2 days of continuous drug exposure 50 μl of freshly prepared XTT-PMS solution {2% 0.386 mg/ml PMS (N-Methyl Dibenzopyrazine Methylsulphate; Sigma, Cat. No. […] Serva, Cat. No. 38450) in RPMI 1640 medium without phenol red} was added to the wells. To measure the proportion of living cells, the cells were incubated for 3 h with XTT-PMS reagent at 37° C., 5% CO2, humidified atmosphere allowing to form the formazan salt. […] Inhibition curves were generated and IC50 values calculated by using GraphPad Prism. In the following table 7 cytotoxicity results (% inhibition of cell growth) obtained in the second set of experiments for selected compounds of the invention are presented in comparison to examples of the prior art (perifosine, miltefosine). The results presented are individual values for the respective cell line as well as the mean value over all three cell lines tested.

[15] = tested on: Moraxella catarrhalis DMS 11994 (ATCC 43617); test: Anti-bacterial bouillon microdilution assay (MIC), bacterium D; format: cell-based; conditions: ATCC43617, 24 h
Procedure: Selected compounds of the invention were tested in a bouillon microdilution assay method according to the DIN 58940 (www.din.de) guidelines for determination of susceptibility of bacterial strains with regard to cell growth inhibition. The assay method quantifies bacterial cell growth which corresponds to the turbidity of the liquid culture medium by photometric measurement carried out at 595 nm.
The method of MIC determination was performed according to DIN 58940-5. The volumina were adapted according to the microdilution method as described in DIN 58940-7 guideline.
Dependent on water solubility, compounds of the invention were dissolved either in water or ethanol in a concentration of 10 mg/ml. Subsequently, the stock was further diluted in water to a concentration of 512 μg/ml. The following serial dilutions (factor 2) were performed in water resulting in the following […] testing concentrations: 256 μg/ml, 128 μg/ml, 64 μg/ml, 32 μg/ml, 16 μg/ml, 8 μg/ml, 4 μg/ml, 2 μg/ml, 1 μg/ml, 0.5 μg/ml, 0.25 μg/ml and 0.125 μg/ml. Diluted compounds of the invention were transferred in 100 μl volume to the microtiter plate wells.
Pre-cultures of bacteria were grown in appropriate liquid media (refer to ATCC webpage, www.atcc.org) and afterwards were inoculated in corresponding liquid medium. 100 μl of the inoculums [adjusted to an amount of app. 1×10^6 microorganisms per ml (range of 10^5-10^8 microorganisms per ml)] were added to each of the testing compound concentrations and cultivated under the appropriate conditions.
Before and after incubation, bacterial growth was determined by photometric analysis against a positive control containing growing bacteria without compound and a sterile/negative control containing only the medium.

Structure (SMILES)	MIC, fungus C [1]	MIC, fungus J [2]	MIC, fungus G [3]	MIC, fungus D [4]	MIC, fungus I [5]	MIC, fungus B [6]	MIC, fungus F (Candida albicans TS3)	MIC, fungus H [7]	MIC, fungus E [8]	MIC, fungus A [9]	inhibition at 31.6 µM [10]	IC50 ([10]; XTT, 48 h exposure, read-out: RKOp21 [IC50 (μM)])	inhibition at 100 µM [11]	inhibition at 31.6 µM [12]	IC50 ([12]; XTT, 48 h exposure, read-out: PC3 [IC50 (μM)])	IC50 [13]	Mean % INH [14]	MIC [15]
CCCCCCCC/C=C\CCCCCCCCCCCCOP(=O)([O-])OCC[N+](C)(C)C [ErPC, (13Z)-docosenylphosphocholine, reference compound]	>64 mg/L	1.5 mg/L (≈ 3.06 µM)	64 mg/L (≈ 131 µM)	>64 mg/L	3 mg/L (≈ 6.13 µM)	>64 mg/L	64 mg/L (≈ 131 µM)	4 mg/L (≈ 8.17 µM)	>64 mg/L	>64 mg/L								
CCCCCCCCC#CCCCCCCCCOP(=O)([O-])OCC[N+](C)(C)C [Compound 144]											48%	51.1 µM	-3%	14%	> 100 µM	> 100 µM	19.7%	
CCCCCCCCCCCCCCCCCCOP(=O)([O-])OC1CC[N+](C)(C)CC1 [perifosine, octadecyl-1,1-dimethyl-piperidino-4-yl-phosphate, reference compound]											63%		90.7%	80.2%			78.0%	
CCCCCCCCCCCCCCCCOP(=O)([O-])OCC[N+]1(C)CCCC(C(=O)OCC)C1 (centres unmarked) [Compound 260]											40.5%		56.1%	45.2%			47.3%	8 mg/L (≈ 15.4 µM)
